Earlier results in publication PMC5989765, “The safety, tolerability, and pharmacokinetic profile of GSK2838232, a novel 2nd generation HIV maturation inhibitor, as assessed in healthy subjects” (Pharmacology Research & Perspectives, 2018).

Assays:
[1] = tested on: HIV; conditions: cited from earlier work
[2] = tested on: HIV; set-up: method as in PMID 20154583; conditions: cited from earlier work

Row | SMILES | anti‐HIV potency compared to BVM ([1]; Phase IIa clinical studies) | safety ([1]; Phase IIa clinical studies) | potency in the presence of human serum [2] | efficacy against naturally occurring polymorphisms in the HIV gag region (CA & Sp1) [1]
1 | C=C(C)[C@@H]1CC[C@]2(NCCN3CCS(=O)(=O)CC3)CC[C@]3(C)[C@H](CC[C@@H]4[C@@]5(C)CC=C(c6ccc(C(=O)O)cc6)C(C)(C)[C@@H]5CC[C@]43C)[C@@H]12 [BMS‐955176] | greater and dose‐related anti‐HIV potency | no obvious safety concerns | – | –
2 | C=C(C)[C@@H]1CC[C@]2(C(=O)O)CC[C@]3(C)[C@H](CC[C@@H]4[C@@]5(C)CC[C@H](OC(=O)CC(C)(C)C(=O)O)C(C)(C)[C@@H]5CC[C@]43C)[C@@H]12 [BVM, Bevirimat] | – | – | significant decrease in potency | lack of efficacy
